From patent US6586407B1, “Injectable pharmaceutical formulations for partricin derivatives” (Quatex N.V., priority 1998, dated 2003)

Test system: mice
Experiment: Single dose i.v. toxicity (LD50) in mice
Type: in vivo
Description: In single dose testing in mice, the i.v. 50% lethal dose (LD50) of the SPA-S-843 formulation, obtained according to Example 15, is increased from 70 mg/kg to >200 mg/kg

For CNc1ccc(C(=O)CC(O)CC[C@H](C)C2OC(=O)C[C@H](O)CC(=O)C[C@H](O)C[C@H](O)C[C@H](O)C[C@H](O)C[C@]3(O)C[C@H](O)[C@@H](C(=O)NCCN(C)C)[C@H](C[C@@H](O[C@@H]4O[C@H](C)[C@@H](O)[C@H](NC(=O)CN(C)C)[C@@H]4O)/C=C/C=C/C=C/C=C/C=C/C=C/C=C/C2C)O3)cc1.N[C@@H](CC(=O)O)C(=O)O.N[C@@H](CC(=O)O)C(=O)O (stereo partly shown) [SPA-S-843, N-dimethylaminoacetyl-partricin A 2-dimethylamino-ethylamide diascorbate], the “i.v. 50% lethal dose (LD50)” value was 70 mg/kg.
